Legend:
[1] = target: Recombinant PRC2 (EZH2-Y641F) (Homo sapiens (Human), UniProt Q15910, Y641F); test: In vitro methyltransferase activity assay (LANCE Ultra); type: biochemical; conditions: 2.5 μM SAM/250 nM H3(1-50)K27me1, 3 hours, room temperature
Procedure: Recombinant PRC2 (EZH2-Y641F) was purchased from Active motif, S-adenosyl-methionine (SAM) and Poly-L-lysine (PLL) were purchased from Sigma-Aldrich, and H3(1-50)K27me1 peptide was purchased from Cisbio. LANCEUltrasystem (Perkinelmer) was used for detection system. In the enzyme activity test, compounds to be tested were diluted by 8 gradient points in a ratio of 1:3, and added into each well in a reaction plate, and 100 ng recombinase was added, followed by a buffer [20 mM Tris pH8.5, 2 mM MgCl2, 0.01% Tween-20, 1 mM TCEP] containing 2.5 μM SAM/250 nM H3 (1-50)K27me1 premixtures. Enzymatic reaction thus began at room temperature. After reacted for 3 hours, a detection solution premixed with PLL, detection antibody and Ulight was added, and reacted for 1 hour at room temperature. The fluorescence value was then read on a Tecan infinite pro. IC50 was calculated by fitting in a four-factor model in the XLfit software.

Pfeiffer cells = test: Cell proliferation assay (Cell counting kit-8, 6 days); type: cell-based; conditions: Pfeiffer (CRL-2632), 6 days culture
Procedure: The used cell lines Pfeiffer (CRL-2632), suDHL-6 (CRL-2959) and suDHL-10 (CRL-2963) were obtained from American Type Culture Collection (ATCC). All cell lines were cultured in RPMI-1640 medium (Gibco) containing 10% fetal bovine serum (Gibco). The cultured cells were harvested by centrifugation and the cell density was determined using a CounterStar cell counter. Appropriate number of cells were plated in a 96-well culture plate and incubated overnight. Compounds to be tested were diluted by 8 gradient points in a ratio of 1:3 and added into corresponding wells. After continuing to culture for 6 days, the number of viable cells was measured with Cell counting kit-8, and the absorbance value was read on Tecan infinite pro. The IC50 was calculated by fitting in a four-parameter model in the XLfit software.

Recombinant PRC2 (EZH2-Y641F), sequence (Q15910 whole entry Y641F): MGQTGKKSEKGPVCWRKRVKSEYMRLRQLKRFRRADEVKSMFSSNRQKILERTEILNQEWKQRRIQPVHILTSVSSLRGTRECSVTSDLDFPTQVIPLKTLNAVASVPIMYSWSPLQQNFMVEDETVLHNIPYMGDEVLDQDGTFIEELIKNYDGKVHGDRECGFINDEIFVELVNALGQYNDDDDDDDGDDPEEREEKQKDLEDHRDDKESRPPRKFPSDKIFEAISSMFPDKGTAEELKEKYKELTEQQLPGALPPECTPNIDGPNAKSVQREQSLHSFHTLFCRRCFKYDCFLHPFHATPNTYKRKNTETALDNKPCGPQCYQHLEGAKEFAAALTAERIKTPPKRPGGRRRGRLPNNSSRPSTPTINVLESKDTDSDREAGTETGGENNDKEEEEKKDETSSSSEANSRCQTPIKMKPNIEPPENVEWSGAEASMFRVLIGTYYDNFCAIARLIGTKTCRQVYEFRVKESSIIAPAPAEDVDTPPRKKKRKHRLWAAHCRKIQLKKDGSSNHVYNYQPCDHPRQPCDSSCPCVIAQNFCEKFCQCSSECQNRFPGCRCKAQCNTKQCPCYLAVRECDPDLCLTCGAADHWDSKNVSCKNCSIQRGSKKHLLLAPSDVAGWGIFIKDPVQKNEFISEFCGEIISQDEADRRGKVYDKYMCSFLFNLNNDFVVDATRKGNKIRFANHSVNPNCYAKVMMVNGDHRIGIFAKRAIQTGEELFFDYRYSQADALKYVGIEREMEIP
Recombinant PRC2 (EZH2-Y641F), sequence (O75530 whole entry partner): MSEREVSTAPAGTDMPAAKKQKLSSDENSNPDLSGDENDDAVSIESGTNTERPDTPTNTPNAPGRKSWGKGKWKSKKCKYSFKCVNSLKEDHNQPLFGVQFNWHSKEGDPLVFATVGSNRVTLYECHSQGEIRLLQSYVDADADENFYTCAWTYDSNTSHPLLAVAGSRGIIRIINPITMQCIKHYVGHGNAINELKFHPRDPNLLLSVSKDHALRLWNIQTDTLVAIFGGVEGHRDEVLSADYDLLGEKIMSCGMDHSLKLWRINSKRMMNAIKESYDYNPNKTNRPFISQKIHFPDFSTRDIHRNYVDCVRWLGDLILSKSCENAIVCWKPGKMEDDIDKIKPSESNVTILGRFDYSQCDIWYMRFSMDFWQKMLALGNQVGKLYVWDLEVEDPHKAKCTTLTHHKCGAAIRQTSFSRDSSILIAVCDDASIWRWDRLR
Recombinant PRC2 (EZH2-Y641F), sequence (Q15022 whole entry partner): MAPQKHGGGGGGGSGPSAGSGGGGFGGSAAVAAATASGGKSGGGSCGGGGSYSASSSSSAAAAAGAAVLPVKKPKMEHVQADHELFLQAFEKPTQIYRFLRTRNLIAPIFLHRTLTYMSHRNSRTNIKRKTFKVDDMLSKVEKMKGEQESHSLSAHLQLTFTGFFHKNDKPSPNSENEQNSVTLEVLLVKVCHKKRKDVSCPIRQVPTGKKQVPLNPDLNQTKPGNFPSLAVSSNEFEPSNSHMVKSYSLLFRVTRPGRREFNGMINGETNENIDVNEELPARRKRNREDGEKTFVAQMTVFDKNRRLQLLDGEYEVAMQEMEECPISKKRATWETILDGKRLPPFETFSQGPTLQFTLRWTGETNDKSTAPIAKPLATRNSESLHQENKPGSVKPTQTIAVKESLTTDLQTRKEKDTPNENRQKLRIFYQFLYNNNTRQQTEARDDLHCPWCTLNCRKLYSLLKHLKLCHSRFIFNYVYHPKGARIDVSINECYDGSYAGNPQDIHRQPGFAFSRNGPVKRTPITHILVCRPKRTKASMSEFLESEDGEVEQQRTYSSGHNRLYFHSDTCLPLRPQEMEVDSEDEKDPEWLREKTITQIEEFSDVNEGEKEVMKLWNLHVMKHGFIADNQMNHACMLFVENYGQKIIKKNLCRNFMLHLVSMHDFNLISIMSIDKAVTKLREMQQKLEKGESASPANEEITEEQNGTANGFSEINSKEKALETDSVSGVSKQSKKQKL
Recombinant PRC2 (EZH2-Y641F), sequence (Q09028 whole entry partner): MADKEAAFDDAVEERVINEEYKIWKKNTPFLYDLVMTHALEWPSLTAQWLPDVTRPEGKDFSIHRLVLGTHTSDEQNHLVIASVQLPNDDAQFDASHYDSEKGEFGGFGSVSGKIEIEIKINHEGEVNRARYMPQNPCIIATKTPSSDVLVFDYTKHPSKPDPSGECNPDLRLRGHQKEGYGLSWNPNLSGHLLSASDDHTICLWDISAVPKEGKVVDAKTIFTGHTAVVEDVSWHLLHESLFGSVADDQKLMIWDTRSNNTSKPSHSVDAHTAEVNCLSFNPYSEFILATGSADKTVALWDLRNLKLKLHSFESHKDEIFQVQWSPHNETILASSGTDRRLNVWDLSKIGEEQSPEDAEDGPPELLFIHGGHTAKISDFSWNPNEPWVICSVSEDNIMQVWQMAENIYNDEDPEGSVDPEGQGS
Recombinant PRC2 (EZH2-Y641F), sequence (Q6ZN18 whole entry partner): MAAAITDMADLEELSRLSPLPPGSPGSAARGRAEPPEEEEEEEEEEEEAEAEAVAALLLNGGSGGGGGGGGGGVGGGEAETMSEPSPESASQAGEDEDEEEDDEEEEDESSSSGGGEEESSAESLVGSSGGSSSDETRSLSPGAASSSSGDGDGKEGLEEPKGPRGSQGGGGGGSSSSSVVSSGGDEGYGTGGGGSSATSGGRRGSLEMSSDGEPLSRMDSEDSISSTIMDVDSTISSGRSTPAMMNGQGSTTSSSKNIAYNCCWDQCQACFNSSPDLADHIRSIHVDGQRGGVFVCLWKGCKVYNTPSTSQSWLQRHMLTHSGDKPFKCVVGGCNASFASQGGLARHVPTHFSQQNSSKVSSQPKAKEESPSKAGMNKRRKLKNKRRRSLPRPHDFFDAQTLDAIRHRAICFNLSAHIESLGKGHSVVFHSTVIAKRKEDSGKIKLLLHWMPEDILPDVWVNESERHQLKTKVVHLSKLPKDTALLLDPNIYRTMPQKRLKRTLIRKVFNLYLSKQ

Row | IC50 [1] [nM] | SMILES | IC50 (Pfeiffer cells; Homo sapiens, 144 h) [nM] | IC50 (Pfeiffer cells) [nM]
1 | 25 | CCN(c1c(C)c(C(=O)NCc2c(OC)cc(C)[nH]c2=O)cc2c1cnn2C)C1CCOCC1 [P-1, 4-(ethyl (tetrahydro-2H-pyran-4-yl)amino)-N-((4-methoxy-6-methyl-2-oxo-1,2-dihydropyridin-3-yl)methyl)-1,5-dimethyl-1H-indazole-6-carboxamide] | 93 | –
2 | 8 | CCN(c1c(C)c(C(=O)NCc2c(C)cc(C)[nH]c2=O)cc2c1cnn2C)C1CCC(CN(C)C)CC1 (stereo not shown) [P-26] | 48 | –
3 | 402 | CCN(c1c(C2CC2)c(C(=O)NCc2c(C)cc(C)[nH]c2=O)cc2c1cnn2C)C1CCOCC1 [P-28] | 702 | –
4 | 13 | CCc1c(C(=O)NCc2c(C)cc(C)[nH]c2=O)cc2c(cnn2C)c1N(CC)C1CCC(N2CC(OCC(F)(F)F)C2)CC1 (stereo not shown) [P-36] | 3 | –
5 | 46 | CCc1c(C(=O)NCc2c(C)cc(C)[nH]c2=O)cc2c(cnn2C)c1N(CC)C1CCC(N2CCN(C)CC2)CC1 (stereo not shown) [P-30] | 201 | –
6 | 7 | CCOC1CN(C2CCC(N(CC)c3c(CC)c(C(=O)NCc4c(C)cc(C)[nH]c4=O)cc4c3cnn4C)CC2)C1 (stereo not shown) [P-39] | 5 | –

Second part, the molecule before the results:

Row | SMILES | IC50 [1] [nM] | IC50 (Pfeiffer cells; Homo sapiens, 144 h) [nM] | IC50 (Pfeiffer cells) [nM]
7 | CCc1c(C(=O)NCc2c(C)cc(C)[nH]c2=O)cc2c(cnn2C)c1N(CC)C1CCC(NC(F)(F)F)CC1 (stereo not shown) [P-25] | 46 | 278 | –
8 | CCN(c1c(C)c(C(=O)NCc2c(C)cc(C)[nH]c2=O)cc2c1cnn2C)C1CCC(N(C)CCOC)CC1 (stereo not shown) [P-9, N-((4,6-dimethyl-2-oxo-1,2-dihydropyridin-3-yl)methyl)-4-(ethyl (4-((2-methoxyethyl)(methyl)amino)cyclohexyl)amino)-1,5-dimethyl-1H-indazole-6-carboxamide] | 9 | 32 | –
9 | CCN(c1c(C)c(C(=O)NCc2c(OC)cc(C)[nH]c2=O)cc2c1cnn2C)C1CCN(CC(F)(F)F)CC1 [P-11, 4-(ethyl(1-(2,2,2-trifluoroethyl)piperidin-4-yl)amino)-N-((4-methoxy-6-methyl-2-oxo-1,2-dihydropyridin-3-yl)methyl)-1,5-dimethyl-1H-indazole-6-carboxamide] | 13 | 292 | –
10 | CCN(c1c(C)c(C(=O)NCc2c(C)cc(C)[nH]c2=O)cc2c1cnn2C)C1CCC(N(C)CC(F)(F)F)CC1 (stereo not shown) [P-44, N-((4,6-dimethyl-2-oxo-1,2-dihydropyridin-3-yl)methyl)-4-(ethyl(4-(methyl(2,2,2-trifluoroethyl)amino)cyclohexyl)amino)-1,5-dimethyl-1H-indazole-6-carboxamide] | 60 | 300 | –
11 | CCN(c1c(C)c(C(=O)NCc2c(C)cc(C)[nH]c2=O)cc2c1cnn2C)[C@H]1CC[C@H](N(C)C)CC1 [P-14, N-((4,6-dimethyl-2-oxo-1,2-dihydropyridin-3-yl)methyl)-4-(((1R, 4R)-4-(dimethylamino)cyclohexyl)(ethyl)amino)-1,5-dimethyl-1H-indazole-6-carboxamide] | 5 | – | 212
12 | CCN(c1ccc(CN(C)C)cc1)c1c(C)c(C(=O)NCc2c(C)cc(C)[nH]c2=O)cc2c1cnn2C [P-43] | 33 | 123 | –
13 | CCc1c(C(=O)NCc2c(OC)cc(C)[nH]c2=O)cc2c(cnn2C)c1N(C)[C@H]1CC[C@H](N(C)CCOC)CC1 [P-21, 5-ethyl-4-(methyl((1R, 4R)-4-((2-methoxyethyl) (methyl)amino)cyclohexyl)amino)-N-((4-methoxy-6-methyl-2-oxo-1,2-dihydropyridin-3-yl)methyl)-1-methyl-1H-indazole-6-carboxamide] | 14 | – | 32
14 | CCN(c1c(C)c(C(=O)NCc2c(OC)cc(C)[nH]c2=O)cc2c1cnn2C)C1CCC(N(C)CCOC)CC1 (stereo not shown) [P-15, 4-(ethyl(4-((2-methoxyethyl) (methyl)amino)cyclohexyl)amino)-N-((4-methoxy-6-methyl-2-oxo-1,2-dihydropyridin-3-yl)methyl)-1,5-dimethyl-1H-indazole-6-carb oxamide] | 7 | 76 | –
15 | CCc1c(C(=O)NCc2c(C)cc(C)[nH]c2=O)cc2c(cnn2C)c1N(CC)C1CCC(N2CCNCC2)CC1 (stereo not shown) [P-29] | 34 | 191 | –
16 | CCN(c1c(C)c(C(=O)NCc2c(C)cc(C)[nH]c2=O)cc2c1cnn2C)C1CCC(N2CCCCC2)CC1 (stereo not shown) [P-32] | 12 | 59 | –
17 | CCN(c1c(C)c(C(=O)NCc2c(C)cc(C)[nH]c2=O)cc2c1cnn2C)C1CCN(C2COC2)CC1 [P-48, N-((4,6-dimethyl-2-oxo-1,2-dihydropyridin-3-yl)methyl)-4-(ethyl(1-(oxetane-3-yl)piperidin-4-yl)amino)-1,5-dimethyl-1H-indazole-6-carboxamide] | 49 | 305 | –
